# Data taken from paper PMC12426922, “Fingerprinting the Intestinal Transport of Low-Molecular-Mass Advanced Glycation End-Products (AGEs) Using a Caco‑2 Transwell Model” (Journal of Agricultural and Food Chemistry, 2025).
# Where two headings read alike, the source gives them in different places. Marks after values point to notes of the source that are not given here.
# Columns and labels:
# [1] = tested on: differentiated Caco-2 cells; test: WST-1 cytotoxicity assay, viability of differentiated Caco-2 cells after 2 h exposure; assay type: cell-based, Human; conditions: for concentration that did not significantly affect cell viability: for the mixture: concentration of each AGE
# Procedure: (§1) Human colon carcinoma cells (Caco-2 cells) were obtained from the American Type Culture Collection (ATCC, Rockville, MD, USA). Caco-2 cells were cultured in complete culture medium, composed of DMEM GlutaMAX with 10% FBS (v/v), 1% P/S (v/v), and 1% NEAA (v/v) at 37 °C in a 5% (v/v) CO2 incubator. In this study, Caco-2 cells within passages 10–15 were utilized.
# The WST-1 assay was used to quantify the viability of differentiated Caco-2 cells upon exposure to the individual AGEs and their equimolar mixture. To this end, Caco-2 cells were seeded in 96-well plates at 3 × 10^4 cells/well (100 μL) and incubated at 37 °C under 5% (v/v) CO2 for 20 days. The complete culture medium was refreshed on each alternate day. After full differentiation, the culture medium was removed, and the cells were washed with HBSS (containing 1% (v/v) HEPES) twice on the testing day. The same volume (100 μL) of HBSS containing a series of concentrations of the different individual test compounds or of a mixture containing all 10 AGEs was added from a 20-times-concentrated stock solution in HBSS. The test concentrations were designed based on the estimated daily intake of total AGEs (0.55–0.66 mg/(kg·day)) and high-exposure scenarios (1.4–1.8 mg/(kg day)). […] After exposure for 2 h, the absorbance at 440 and 620 nm was measured in a plate spectrophotometer (Molecular Devices, San Jose, CA, USA, Spectra Max M2). After measurement, the cell viability was calculated as cell viability (%)=(Atested 440 nm−Atested 620 nm)/(Acontrol 440 nm−Acontrol 620 nm)×100
# Caco-2 cell monolayer = test: Accumulation of AGEs in the Caco-2 cell monolayer after transport experiment; assay type: in vitro ADME, Human; conditions: 2 h; for percentage of the amount added at the apical side at t = 0: accumulation / percentage of the amount added at the apical side at t = 0: accumulation (intracellular): mixture, each AGE 100 μmol/L
# Procedure: After the transport experiment, the cell monolayer on the inset membrane was washed three times with HBSS and three times with PBS. […] The samples were subsequently centrifuged at 16 000g for 20 min at 4 °C, and the supernatant was collected for further analysis by LC-MS.
# The analytical column was maintained at 40 °C throughout the quantification process. A multistep binary gradient system of water containing 0.1% (v/v) formic acid (solvent A) and acetonitrile containing 0.1% (v/v) formic acid (solvent B) was used. In the whole gradient program, the total proportion of solvents A and B is always equal to 100%. […] The initial flow rate was set to 0.30 mL/min. Subsequently, it was reduced to 0.25 mL/min at 0.3 min, which was kept until 10 min. Afterward, there was a gradual decrease, reaching 0.15 mL/min at 11 min, and this rate was maintained until 12 min. […] Between 1 and 11 min of gradient running, the line was set to MS, and for the other time periods, the line was set to waste. The retention time and mass spectrometry parameters of individual AGEs are listed in Table S1 and the chromatograms of the samples are shown in Figure S1.
# [2] = Transport of AGE mixture across Caco-2 cell layer (transwell, apical to basolateral); assay type: in vitro ADME, Human; conditions: human; for recovery at 2 h, 100 μmol/L: read-out: percentage of the amount added at the apical side at t = 0: recovery; for Papp at 120 min, 100 μmol/L: data from 120 min
# Procedure: as §1
# (§2) Caco-2 cells were cultured until reaching 50%–60% confluence (undifferentiated Caco-2 cells), followed by trypsinization. Then, cells were seeded at 3 × 10^4 cells per insert in 100 μL of complete culture medium into the transwell inserts of a 24-well transwell plate, and 600 μL of complete culture medium was added to the basolateral compartments. In both the apical and basolateral compartments, the medium was renewed every other day. After 2 weeks, the transepithelial electrical resistance (TEER) value was measured using a Millicell ERS-2 Electrical Resistance System (Burlington, MA, USA) every other day. Only wells with a TEER value of >400 Ω/cm^2 were used for transport experiments. Moreover, the TEER value was measured before and after the transport experiment to ascertain that the Caco-2 cell layer remained intact during the whole transport experiment.
# (§3) Transport experiments were performed after 20 days of differentiation of the Caco-2 cells. The culture medium was replaced with HBSS (containing 1% (v/v) HEPES) 30 min prior to testing in both the apical and basolateral compartments. After the 30 min preincubation, 100 μL of HBSS containing a mixture of the 10 different AGEs including CML, CEL, GALA, argpyrimidine, MG-H1, GOLD, GOLA, MOLD, pentosidine, and pyrraline, each at 100 μmol/L, was added to the apical compartment after removing the preincubation medium, while the basolateral medium was replaced by 600 μL of HBSS. […] At 120 min, a 10 μL sample from the apical side was taken for calculating apical side retention (nontransported percentage).
# (§4) The apparent permeability coefficient (Papp) value was calculated according to the methodology described by Yee.
# (§5) AGEs were quantified by LC-MS using a Shimadzu Nexera XR LC-40D XR UPLC system (Kyoto, Japan) equipped with a UPLC Amide column (100 mm × 2.1 mm, 1.7 μm) without derivatization coupled with a Shimadzu LCMS-8045 triple quadrupole mass spectrometer (Kyoto, Japan). The analytical column was maintained at 40 °C throughout the quantification process. A multistep binary gradient system of water containing 0.1% (v/v) formic acid (solvent A) and acetonitrile containing 0.1% (v/v) formic acid (solvent B) was used. In the whole gradient program, the total proportion of solvents A and B is always equal to 100%. The gradient program was designed as follows: 75% solvent B to 12.5% solvent B from 0 to 10 min, followed by 12.5% solvent B from 10 to 11 min. […] The initial flow rate was set to 0.30 mL/min. Subsequently, it was reduced to 0.25 mL/min at 0.3 min, which was kept until 10 min. Afterward, there was a gradual decrease, reaching 0.15 mL/min at 11 min, and this rate was maintained until 12 min. […] Between 1 and 11 min of gradient running, the line was set to MS, and for the other time periods, the line was set to waste. The retention time and mass spectrometry parameters of individual AGEs are listed in Table S1 and the chromatograms of the samples are shown in Figure S1.
# PepT1 = test: as above; assay type: in vitro ADME, Human; conditions: human, mixture, each AGE 100 μmol/L; for recovery at 2 h, 100 μmol/L: Caco-2, with Gly-Sar 10 mmol/L (apical compartment), Gly-Sar 10 mmol/L, read-out: percentage of the amount added at the apical side at t = 0: recovery; for Papp at 120 min, 100 μmol/L: Caco-2, with Gly-Sar 10 mmol/L (apical), 10 mmol/L Gly-Sar apical (PepT1 inhibition), data from 120 min
# Procedure: as §1, §2, §3, §4, §5
# Caco-2 cell layer = test: as above; assay type: in vitro ADME, Human; conditions: mixture, each AGE 100 μmol/L, 2 h; for percentage of the amount added at the apical side at t = 0: apical side (nontransported) / percentage of the amount added at the apical side at t = 0: basolateral side (transported): standard treatment
# Procedure: as §1, §2, §3, §4, §5
# [3] = Caco-2, 4 °C, mixture, each AGE 100 μmol/L
# [4] = Caco-2, cytochalasin D pretreatment, mixture, each AGE 100 μmol/L
# [5] = Caco-2, standard treatment (37 °C), equimolar mixture of 10 AGEs, each 100 μmol/L apical
# [6] = Caco-2, standard treatment, mixture, each AGE 100 μmol/L
# [7] = Caco-2, cytochalasin D 1 μg/mL, 30 min apical preincubation, mixture, each AGE 100 μmol/L
Compound,concentration that did not significantly affect cell viability [1] [µM],percentage of the amount added at the apical side at t = 0: accumulation (Caco-2 cell monolayer; 4 °C),percentage of the amount added at the apical side at t = 0: accumulation (Caco-2 cell monolayer; Gly-Sar 10 mmol/L),percentage of the amount added at the apical side at t = 0: accumulation (Caco-2 cell monolayer; cytochalasin D pretreatment),"recovery at 2 h, 100 μmol/L [2, 3] [%]","Papp at 120 min, 100 μmol/L [2, 3] [×10⁻⁶ cm/s]","recovery at 2 h, 100 μmol/L [2, 4] [%]","Papp at 120 min, 100 μmol/L [2, 5] [×10⁻⁶ cm/s]","recovery at 2 h, 100 μmol/L [2, 6] [%]","Papp at 120 min, 100 μmol/L [2, 7] [×10⁻⁶ cm/s]","recovery at 2 h, 100 μmol/L (PepT1) [%]","Papp at 120 min, 100 μmol/L (PepT1) [×10⁻⁶ cm/s]",percentage of the amount added at the apical side at t = 0: apical side (Caco-2 cell layer; 4 °C),percentage of the amount added at the apical side at t = 0: basolateral side (Caco-2 cell layer; 4 °C),percentage of the amount added at the apical side at t = 0: apical side (Caco-2 cell layer; Gly-Sar 10 mmol/L),percentage of the amount added at the apical side at t = 0: basolateral side (Caco-2 cell layer; Gly-Sar 10 mmol/L),percentage of the amount added at the apical side at t = 0: apical side (Caco-2 cell layer; cytochalasin D pretreatment),percentage of the amount added at the apical side at t = 0: basolateral side (Caco-2 cell layer; cytochalasin D pretreatment),percentage of the amount added at the apical side at t = 0: apical side (nontransported) (Caco-2 cell layer),percentage of the amount added at the apical side at t = 0: basolateral side (transported) (Caco-2 cell layer),further results
"Cc1c[n+](CCCC[C@H](N)C(=O)O)cn1CCCC[C@H](N)C(=O)O [MOLD, methylglyoxal–lysine dimer]",≤ 1500,0.0 ± 0.0 ^a %,0.0 ± 0.1 ^a %,0.0 ± 0.1 ^a %,83.1 ± 6.5,0.057,91.7 ± 12.6,0.098,90.8 ± 7.9,0.34,93.8 ± 7.2,0.11,83.0 ± 6.5 ^b %,0.1 ± 0.1 ^b %,93.5 ± 7.2 ^a %,0.3 ± 0.2 ^b %,90.8 ± 12.2 ^ab %,0.8 ± 0.6 ^a %,90.6 ± 7.7 ^ab %,0.2 ± 0.2 ^b %,–
Cc1nc(NCCC[C@H](N)C(=O)O)nc(C)c1O [argpyrimidine],≤ 500,0.0 ± 0.0 ^b %,0.5 ± 0.2 ^a %,0.5 ± 0.3 ^a %,87.4 ± 5.4,0.099,94.7 ± 5.4,0.145,91.8 ± 5.9,0.395,94.6 ± 5.2,0.141,87.1 ± 5.4 ^b %,0.2 ± 0.1 ^b %,93.8 ± 5.0 ^a %,0.3 ± 0.1 ^b %,93.3 ± 5.2 ^a %,0.9 ± 0.6 ^a %,91.2 ± 5.9 ^ab %,–,percentage of the amount added at the apical side at t = 0: accumulation (intracellular) (Caco-2 cell monolayer; standard treatment): 0.2 ± 0.2 ^b %
"CC(NCCCC[C@H](N)C(=O)O)C(=O)O (stereo partly drawn) [CEL, N-ε-(carboxyethyl)-lysine]",≤ 1500,0.0 ± 0.0 ^b %,1.3 ± 0.2 ^a %,1.2 ± 0.2 ^a %,89.1 ± 9.1,0.105,95.5 ± 5.1,0.164,96.5 ± 7.2,0.507,89.5 ± 4.8,0.149,88.8 ± 9.1 ^a %,0.3 ± 0.1 ^a %,–,0.4 ± 0.1 ^a %,93.1 ± 4.7 ^a %,1.2 ± 0.6 ^b %,95.0 ± 7.00 ^a %,0.4 ± 0.2 ^a %,intracellular accumulation relative to CML (Caco-2 cell monolayer; standard treatment): about half that observed of CML; percentage of the amount added at the apical side at t = 0: accumulation (intracellular) (Caco-2 cell monolayer; standard treatment): 1.1 ± 0.2 ^a %
N[C@@H](CCCCn1c(C=O)ccc1CO)C(=O)O [pyrraline],–,0.0 ± 0.0 ^b %,0.1 ± 0.0 ^a %,0.2 ± 0.1 ^a %,87.1 ± 6.1,–,90.3 ± 4.9,0.1,89 ± 5.6,0.334,86.7 ± 2.8,0.08,86.9 ± 6.0 ^a %,0.1 ± 0.1 ^b %,86.4 ± 2.8 ^a %,0.2 ± 0.1 ^b %,89.4 ± 4.7 ^a %,0.8 ± 0.5 ^a %,88.6 ± 5.5 ^a %,0.2 ± 0.1 ^b %,effect on cell viability [1]: did not affect cell viability up to the highest concentration tested; percentage of the amount added at the apical side at t = 0: accumulation (intracellular) (Caco-2 cell monolayer; standard treatment): 0.1 ± 0.1 ^a %
